In patent US10301288B2, “Kinase inhibitors” (Topivert Pharma Limited, priority 2013, dated 2019):

Experiments:
[1] = Plasma pharmacokinetics in beagle dogs; format: in vivo, male beagle dogs; settings: Dog
Protocol: Blood samples (approximately 1.5 mL) were collected from jugular vein such that the samples were obtained at pre-dose, 0.25, 0.5, 1, 2, 4, 6, 8, and 24 hr (p.o.) and pre-dose, 0.08, 0.25, 0.5, 1, 2, 4, 8, 12, 24 and 32 hr (i.v.) post dose. The blood samples were collected from a set of three dogs at each time point in labelled micro centrifuge tube containing K2EDTA as anticoagulant. Plasma samples were separated by centrifugation at 2500 g for 10 min of whole blood and stored below −70° C. until bioanalysis. All samples were processed for analysis by protein precipitation using acetonitrile and analyzed with LC-MS/MS method (LLOQ=0.50 ng/mL). Pharmacokinetic parameters were calculated using the non-compartmental analysis tool of Phoenix WinNonlin® (Version 6.3).

[2] = Cryopreserved hepatocyte stability, dog; format: in vitro ADME; settings: pooled cryopreserved hepatocytes, read-out: Mean intrinsic clearance
Protocol: (§1) Formulae Clint(tissue clearance) mL/min/kg=[0.693/t½ (min)]×[1/microsomal protein concentration mg/mL]×[mg microsomes/g liver]×[g liver/kg body weight] […] The incubations were performed at 37° C. with 100 μL, samples taken from the incubation, at 0, 10, 20, 45 and 90 minutes, and reactions terminated by addition of 100 μL of acetonitrile containing carbamazepine as analytical internal standard. […] Half-life values were calculated from the relationship T1/2 (min)=−0.693/λ • where λ was the slope of the Ln concentration vs time curve. • Standard compounds testosterone, midazolam and 4-methylumbelliferone are included in the assay design.
(§2) Clint(Tissue Clearance) mL/min/kg=[0.693/t½(min)]×[1/hepatocyte concentration (million cells/mL)]×[million cells/g liver]×[g liver/kg body weight] Clint(Hepatic clearance) mL/min/kg=hepatic blood flow×Clint/(hepatic blood flow+Clint) Hepatic extraction ratio(Eh)=Clint(Hepatic clearance) mL/min/kg/hepatic blood flow (mL/min/kg)

[3] = Hydrolytic stability study in DMSO and water (3:1); format: physicochemical; settings: 1 mg/mL
Protocol: General HPLC Procedure • Agilent, Waters X-Select C18, 2.5 μm, 4.6×30 mm column, 4 min method, 5-95% MeCN/water (0.1% formic acid). • Flow rate 2.5 ml/min • Column Oven Temperature 40° C. • Detection 254 nm.
Sample Preparation • A 1.0 mg sample of test compound was dissolved in 750 μL of DMSO. Water (250 μL) was added slowly, ensuring no precipitation occurred.
Recording Stability • A 50 μL aliquot of the test solution was removed and analysed in duplicate by 5 μL HPLC injections. The peak area for the test compound was recorded following manual integration of the corresponding UV trace. • The test solution was heated to 60° C., with stirring, and 50 μL aliquots removed for HPLC analysis at 5 and 24 h timepoints.

hERG = hERG (Homo sapiens (Human), UniProt Q12809); test: hERG inhibition, IonWorks patch clamp; format: cell-based
Sequence of hERG (Q12809 whole entry): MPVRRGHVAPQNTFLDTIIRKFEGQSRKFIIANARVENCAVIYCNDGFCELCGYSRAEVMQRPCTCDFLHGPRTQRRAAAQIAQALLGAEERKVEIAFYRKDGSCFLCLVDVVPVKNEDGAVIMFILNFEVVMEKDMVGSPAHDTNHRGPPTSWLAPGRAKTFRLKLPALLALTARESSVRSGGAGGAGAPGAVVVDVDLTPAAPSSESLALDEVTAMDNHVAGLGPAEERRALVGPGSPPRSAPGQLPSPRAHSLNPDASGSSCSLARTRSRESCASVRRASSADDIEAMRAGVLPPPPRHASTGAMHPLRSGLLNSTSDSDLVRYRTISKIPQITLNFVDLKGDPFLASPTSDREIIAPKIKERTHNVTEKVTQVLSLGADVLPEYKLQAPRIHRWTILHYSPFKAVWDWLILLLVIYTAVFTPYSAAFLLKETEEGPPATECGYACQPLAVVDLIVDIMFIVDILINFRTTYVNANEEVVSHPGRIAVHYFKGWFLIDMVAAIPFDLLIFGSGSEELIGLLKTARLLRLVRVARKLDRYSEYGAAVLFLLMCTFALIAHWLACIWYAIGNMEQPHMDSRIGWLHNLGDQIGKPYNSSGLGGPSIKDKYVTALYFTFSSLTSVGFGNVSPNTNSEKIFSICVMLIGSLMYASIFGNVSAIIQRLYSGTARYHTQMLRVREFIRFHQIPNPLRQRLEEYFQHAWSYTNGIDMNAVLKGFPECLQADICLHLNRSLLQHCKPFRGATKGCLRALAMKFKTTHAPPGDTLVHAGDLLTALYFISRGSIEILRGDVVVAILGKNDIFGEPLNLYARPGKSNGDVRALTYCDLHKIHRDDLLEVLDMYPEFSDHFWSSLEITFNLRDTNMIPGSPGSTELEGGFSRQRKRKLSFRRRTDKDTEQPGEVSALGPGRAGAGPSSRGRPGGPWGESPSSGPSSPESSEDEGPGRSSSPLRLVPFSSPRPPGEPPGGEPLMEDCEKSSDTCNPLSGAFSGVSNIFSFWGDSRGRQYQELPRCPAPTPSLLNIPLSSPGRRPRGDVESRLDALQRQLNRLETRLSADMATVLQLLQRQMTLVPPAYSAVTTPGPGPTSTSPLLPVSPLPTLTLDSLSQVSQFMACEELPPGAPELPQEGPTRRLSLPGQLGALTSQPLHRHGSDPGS
Protocol: Eight-point concentration curves were generated using serial 3-fold dilutions from the maximum final assay concentration (3 μM). Electrophysiological recordings were made from a Chinese Hamster Lung cell line stably expressing the full length hERG channel Single cell ionic currents were measured in the perforated patch clamp configuration (100 μg/mL) amphotericin) at room temperature (21-23° C.) using an IonWorks Quattro instrument. The internal solution contained (mM): 140 KCl, 1 MgCl2, 1 EGTA, 20 HEPES and was buffered to pH 7.3. The external solution contained (mM):138 NaCl, 2.7 KCl, 0.9 CaCl2, 0.5 MgCl2, 8 Na2HPO4, 1.5 KH2PO4, also buffered to pH 7.3. Cells were clamped at a holding potential of −70 mV for 30 s and then stepped to +40 mV for 1 s. This was followed by a hyperpolarising step of 1 s to −30 mV to evoke the hERG tail current. This sequence was repeated 5 times at a frequency of 0.25 Hz. Currents were measured from the tail step at the 5th pulse, and referenced to the holding current. Compounds were then incubated for 6-7 minutes prior to a second measurement of the hERG signal using an identical pulse train. Eight-point concentration curves were generated using serial 3-fold dilutions from the maximum final assay concentration (3 μM).

[4] = Cryopreserved hepatocyte stability, human; format: in vitro ADME; settings: pooled cryopreserved hepatocytes, read-out: Mean intrinsic clearance
Protocol: as §1, §2

B-Raf (V600e) = B-Raf (V600e) (Homo sapiens (Human), UniProt P15056, V600E); test: KINOMEscan enzyme binding assay, B-Raf (V600e)
Sequence of B-Raf (V600e) (P15056 whole entry V600E): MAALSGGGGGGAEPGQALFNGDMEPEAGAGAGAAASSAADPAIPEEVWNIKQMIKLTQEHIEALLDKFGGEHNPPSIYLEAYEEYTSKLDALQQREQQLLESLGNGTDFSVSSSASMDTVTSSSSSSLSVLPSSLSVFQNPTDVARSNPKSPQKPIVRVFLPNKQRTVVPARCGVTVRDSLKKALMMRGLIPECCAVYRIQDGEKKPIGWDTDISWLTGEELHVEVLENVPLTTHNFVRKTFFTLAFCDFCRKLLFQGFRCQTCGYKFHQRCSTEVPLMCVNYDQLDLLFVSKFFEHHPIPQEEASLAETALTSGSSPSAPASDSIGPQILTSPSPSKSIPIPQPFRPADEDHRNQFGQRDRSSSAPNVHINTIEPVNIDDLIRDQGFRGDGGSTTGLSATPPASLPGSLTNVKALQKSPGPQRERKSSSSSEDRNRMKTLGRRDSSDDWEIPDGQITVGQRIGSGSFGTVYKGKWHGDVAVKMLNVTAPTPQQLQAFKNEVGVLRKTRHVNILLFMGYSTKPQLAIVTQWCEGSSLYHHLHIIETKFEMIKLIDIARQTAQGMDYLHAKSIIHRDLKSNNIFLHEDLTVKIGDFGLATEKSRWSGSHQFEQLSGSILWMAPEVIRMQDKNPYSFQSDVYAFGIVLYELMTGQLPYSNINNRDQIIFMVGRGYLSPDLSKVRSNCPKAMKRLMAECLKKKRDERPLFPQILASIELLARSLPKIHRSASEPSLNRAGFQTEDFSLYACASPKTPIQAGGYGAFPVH
Protocol: Kinase enzyme binding activities of compounds disclosed herein may be determined using a proprietary assay which measures active site-directed competition binding to an immobilized ligand (Fabian, M. A. et al., Nature Biotechnol., 2005, 23:329-336). These assays may be conducted by DiscoverX (formerly Ambit; San Diego, Calif.). The percentage inhibition produced by incubation with a test compound may be calculated relative to the non-inhibited control.

c-Src = c-Src (Homo sapiens (Human), UniProt P12931); test: c-Src enzyme inhibition (FRET); format: biochemical
Sequence of c-Src (P12931 whole entry, looked up): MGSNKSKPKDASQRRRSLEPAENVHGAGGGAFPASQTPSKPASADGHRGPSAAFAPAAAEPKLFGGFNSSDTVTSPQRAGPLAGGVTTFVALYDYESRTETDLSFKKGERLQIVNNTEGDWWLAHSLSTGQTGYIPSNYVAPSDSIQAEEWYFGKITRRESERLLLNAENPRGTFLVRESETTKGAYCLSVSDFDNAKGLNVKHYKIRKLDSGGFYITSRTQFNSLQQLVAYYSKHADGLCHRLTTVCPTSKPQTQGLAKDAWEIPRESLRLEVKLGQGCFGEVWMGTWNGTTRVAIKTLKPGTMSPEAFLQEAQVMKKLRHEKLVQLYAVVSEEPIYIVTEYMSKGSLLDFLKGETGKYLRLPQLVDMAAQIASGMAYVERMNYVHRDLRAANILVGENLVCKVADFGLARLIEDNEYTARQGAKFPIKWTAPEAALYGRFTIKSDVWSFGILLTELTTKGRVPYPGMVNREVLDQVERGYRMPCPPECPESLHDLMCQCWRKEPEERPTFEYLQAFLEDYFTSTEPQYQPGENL
Outline: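 Z-LYTE FRET peptide assay: c-Src (3000 ng/mL) or Syk (2000 ng/mL) preincubated 2 h at room temperature with compound (4–0.004 μg/mL working solutions). Reaction was 1 h with peptide (8 μM solution) and ATP (800 μM c-Src, 60 μM Syk solutions), followed by 1 h protease development. Phosphorylation was read as the coumarin/fluorescein emission ratio.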

[5] = male, beagle, plasma, 0.05 mg/kg intravenous

Fpo ([1]; 1 mg/kg p.o., Plasma): 0% | AUC(0-inf) [1, 5]: 223 ± 92 ng·h/mL | AUC(0-t) [1, 5]: 218 ± 90 ng·h/mL | C0 [1, 5]: 1370 ng/mL | Vd [1, 5]: 0.2 ± 0.1 L/kg | clearance [1, 5]: 4.1 ± 1.4 mL/min/kg | half-life [1, 5]: 1.9 ± 0.4 h | hepatocyte CLint at 0.1 μM [2]: 46 µL/min/1e6 cells | % left ([3]; 0 min): 100% | % left ([3]; 60° C., 300 min): 83% | % left ([3]; 60° C., 1440 min): 39% | hepatocyte CLint at 0.1 μM [4]: 37 µL/min/1e6 cells | effect on the binding of B-Raf (V600e) to its standard ligand (B-Raf (V600e)): did not have any effect | IC50 (c-Src): 11 nM
Compound: C#Cc1cc(Nc2nccc(Oc3ccc(NC(=O)Nc4cc(C(C)(C)C)nn4-c4ccc(C)cc4)c4ccccc34)n2)cc(C(=O)NCCOCCOCCOC)c1 [Example 2, 3-((4-((4-(3-(3-(tert-Butyl)-1-(p-tolyl)-1H-pyrazol-5-yl)ureido)naphthalen-1-yl)oxy)pyrimidin-2-yl)amino)-5-ethynyl-N-(2-(2-(2-methoxyethoxy)ethoxy)ethyl)-benzamide]
IC50 (hERG): > 3000 nM | inhibition at 3 µM (hERG; human, pH 7.3, 3 μM, read-out: inhibition of the hERG channel): 0%
